Laboratory results taken from patent US20040126385A1, “Methods and compositions for screening, diagnosing, or treating NF-kappaB related disease” (priority 2001, published 2004).

Experiments:
[1] = system: CSMLO cells; assay: Growth of CSMLO cells under culture conditions; assay type: cell-based, mouse; conditions: short-term drug treatment with 10 μM Go6976
Procedure: Materials. Mouse mammary adenocarcinoma cells in culture (CSMLO) were grown in complete medium supplemented with 10% FBS and growth factors as described (7, 11, 12). Anti-human ER antibody (SC543), anti-mouse ccD1 antibody, anti-p50, and anti-p65 antibodies for the NF-κB subunits were obtained from Santa Cruz Biotechnology. Rabbit polyclonal IgG raised against the conserved region of actin and anti-Flag (M2) monoclonal antibody were obtained from Sigma-Aldrich. The fluorescein-conjugated goat anti-mouse IgG was from Oncogene Science. Complementary strands of the oligonucleotide (5′-[…]-3′) containing the NF-κB motif (bold faced) were custom synthesized by Integrated DNA Technologies (Coralville, Iowa). The double-stranded NF-κB-oligonucleotide was end-labeled with [γ-^32P]ATP (NEN) and T4 kinase (New England Biolabs) as described (7), and was used for electrophoretic mobility shift assay (EMSA). Hydrocortisone, insulin, DTT, dimethyl sulfoxide (DMSO), and phenylmethylsulfonyl fluoride were obtained from Sigma. Hybond nitrocellulose membrane and ECL (enhanced chemiluminescence) immunodetection kits were obtained from Amersham Pharmacia. Go6976, a nonglyosidic indolcarbazole, and an inhibitor of protein kinase C alpha and beta was purchased from Calbiochem-Novabiochem (28, 29).

[2] = system: tumor, liver, and lung tissues; assay: Histology (H&E) of tumor, liver and lung tissues of tumor-bearing animals; assay type: in vivo, mouse
Excerpt: FIG. 4. Histology of tissues from untreated and Go6976-treated tumor-bearing animals. Tumor growth and treatment conditions are the same as described for FIG. 1. Tumor, liver, and lung tissues from untreated and treated tumor bearing animals were dissected 11 days after the initiation of treatment and 32 days after implantation of the cells. Tissues were processed for hematoxylin/eosin (H&E) staining, examined under a light microscope, and photographed at the indicated magnifications. Arrows show mitotic cells in untreated tumor tissue. Residual tumor (T) and necrotic cells (N) of the treated tumor are shown. Stars in the treated block indicate pycnotic cells with apparent fragmentation and clumping of nuclear DNA.
(§1) Animal model. The tumorigenic potential of CSMLO and dnIkkβ-expressing stable transfectants was examined in female A-J mice 2-3 weeks old. For each mouse, 1.0 s×10^6 cells were implanted under the dorsal skin. Palpable tumors were consistently detected within 10-15 days following implantation of the cells. Body weight and tumor volumes (32) were monitored weekly. Go6976 (0.5 ml of 0.05 mM stock solution in 0.1% DMSO) was administered to each animal locally two times a week. The control group received the same volume of the solvent (0.5 ml of 0.1%).

[3] = Physical condition and lethality of treated mice; assay type: in vivo
Procedure: (§2) FIG. 2. Regression of tumors by Go6976. (A) CSMLO cells were implanted on day 0 (indicated by the arrow) as for FIG. 1. Go6976 was administered on day 21 (indicated by the arrow), locally under the tumors of the five animals with comparatively larger tumors (▪). Another five animals received the same volume of 0.1% DMSO (♦) on the same day, and the control group of five animals received nothing (□). (B) One representative of five animals from each group. Animals 1 and 2 are DMSO- and Go6976-treated non-tumor-bearing animals, respectively. Animal 3 is tumor-bearing and without treatment. Animals 4 and 5 represent tumor-bearing groups treated with DMSO and Go6976, respectively. Animal 6 is an A-J mouse that received nothing.
as §1

[4] = system: NF-κB; assay: Level of active NF-κB in nuclear extracts by EMSA; assay type: cell-based, mouse; conditions: CSMLO cells
Procedure: FIG. 3. Active NF-κB complex in CSMLO cells: Stimulation by PMA and inhibition by Go6976. (A) Nuclear extracts (5 μg protein) from control and PMA-treated (20 ng/ml for 18 h) CSMLO cells were incubated in a standard EMSA reaction mixture containing [γ-^32P]-labeled double-stranded oligonucleotide plus Go6976 at the indicated μM concentrations for […] and subjected to nondenaturing PAGE (7, 31). The autoradiographic signals of the retarded NF-κB-[^32 P]DNA complex is indicated by the upper arrow and the free [γ-^32P]-labeled probe by the lower arrow. (B) The NF-κB-[^32P]DNA complex was characterized by supershift assay with anti-p50 (lanes 3 and 4) or p65 (B, lanes 5 and 6) antibodies. Nuclear extracts were incubated with specific antibodies for 15 min at room temperature, followed by incubation for an additional 30 min in the presence of [γ-^32p] double-stranded NF-κB oligonucleotide, and subjected to EMSA as described (7, 31). The supershifted complexes are indicated by the upper arrow.
Methods. Measurements of the level of active NF-κB by EMSA. The level of active NF-κB in the nuclear extracts of control and treated cells was determined by its DNA binding activity by EMSA as described 7, 30, 31). The [^32P]DNA-protein complex was identified as a retarded radioactive band in EMSA detected by autoradiography. […]

[5] = system: ccD1; assay: Level of ccD1 by Western blot analysis; assay type: cell-based, mouse; conditions: CSMLO cells transfected with dnIkkβ
Excerpt: FIG. 5. Inhibition of NF-κB activation and down stream events by stable expression of dominant-negative IκB-kinase β (dnIkkβ). (A Upper) dnIkkβ-Expressing transfectant cells by light microscopy (i), 4′,6-diamidino-2-phenylindole (DAPI)-stained nuclei (ii), and immunofluorescence with anti-FLAG antibody in the presence of the secondary antibody (iii). The positive signals show dnIkkβ-conjugated FLAG protein in the cytoplasm. (Lower) Processed vector-control plasmid-transfected CSMLO cells in which no FLAG protein could be detected (vi). (B Upper) Active NF-κB was determined by its [γ-^32P]DNA binding activity by EMSA, in three dnIkkβ-expressing stable transfectants (dnIkkβ1-1, dnIkkβ1-3, and dnIkkβ1-5) and (Lower) in parent CSMLO cells and vector control plasmid expressing transfectant (vect1-5). (C Upper) The level of ccD1 in the same three-dnIkkβ-expressing CSMLO and vector control transfected cells, as measured by Western blot analysis. (Lower) Actin analyzed similarly by immunodetection with anti-β-actin antibody that serves as a loading control.

[6] = system: CSMLO-induced tumors; assay: Tumor growth in mouse tumor model (CSMLO cells implanted in female A-J mice); assay type: in vivo
Procedure: FIG. 1. Inhibition of growth of tumors by Go6976. Tumors were generated in female A-J mice by implantation of CSMLO cells (10^6) on day 0 (indicated by the arrow). Go6976 (0.5 ml of 0.05 mM solution in 0.1% DMSO) was administered 48 h later to a group of five animals, twice a week locally at the site of implantation of cells (♦). Control group (five animals) received 0.5 ml of 0.1% DMSO similarly (□). Growth of tumors was monitored by measurements of tumor volume at regular intervals (32).
as §2
Animal model. […] Palpable tumors were consistently detected within 10-15 days following implantation of the cells. Body weight and tumor volumes (32) were monitored weekly. […]

## Cn1c2ccccc2c2c3c(c4c5ccccc5n(CCC#N)c4c21)CNC3=O [Go6976]
[1]
  growth of cells under culture conditions: not affected
[2]; Go6976-treated tumor-bearing animals, 11 days after initiation of treatment
  histological changes in tumor tissue: extensive necrosis
[2]; treated animal, magnification 100×
  pycnotic cells in residual tumor tissue (suggestive of DNA fragmentation and apoptosis): a large number of pycnotic cells with nuclear clumping
[2]; tumor-bearing or non-tumor-bearing animals, localized Go6976 treatment
  pathological changes in liver and lung tissue: did not show any microscopically detectable pathological changes
[3]; mice without tumor treated with Go6976
  physical defects as judged by body weight and agility: did not show any apparent physical defects
[3]; mouse, in vivo
  mouse lethality: without mouse lethality
[4]
  basal level of NF-κB: did not affect the basal level of NF-κB
[4]; PMA 20 ng/ml, simultaneous treatment with Go6976 for 48 h
  PMA-induced elevation of NF-κB activation: inhibited in a concentration-dependent manner
[5]
  transactivation of ccD1: blocked transactivation of ccD1
[6]; Go6976 0.5 ml of 0.05 mM in 0.1% DMSO, local, twice a week, started within 48 h of implantation of CSMLO cells, vs DMSO-treated group
  tumor growth (tumor volume): substantial inhibition of tumor growth
[6]; Go6976 administered locally 21 days after implantation of CSMLO cells, all of five animals
  regression of full-grown tumors (tumor volume): regressed sharply
